# Data taken from article PMC8909834, “An Orally Bioavailable and Highly Efficacious Inhibitor of CDK9/FLT3 for the Treatment of Acute Myeloid Leukemia” (Cancers, 2022).
# Key:
# Assay in all cases: Kinase Hotspot radiolabel assay
# Assay type in all cases: biochemical
# Settings in all cases: read-out: % Residual Activity
# ROS/ROS1 = target: T1, ROS/ROS1 (Homo sapiens, UniProt P08922)
# T1 construct: purchased Reaction Biology Corporation (Kinase HotSpot)
# Outline: (§1)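 Inhibition measured by a radiolabel Hotspot kinase assay as part of a 369-kinase specificity panel, with the compound at 1 µM. Kinases inhibited by more than 90% went on to Ki determination.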
# FAK/PTK2 = target: T2, FAK/PTK2 (Homo sapiens, UniProt Q05397)
# T2 construct: purchased Reaction Biology Corporation (Kinase HotSpot)
# Outline: as §1
# MUSK = target: T3, MUSK (Homo sapiens, UniProt O15146)
# T3 construct: purchased Reaction Biology Corporation (Kinase HotSpot)
# Outline: as §1
# ULK1 = target: T4, ULK1 (Homo sapiens, UniProt O75385)
# T4 construct: purchased Reaction Biology Corporation (Kinase HotSpot)
# T4 sequence (O75385 whole entry): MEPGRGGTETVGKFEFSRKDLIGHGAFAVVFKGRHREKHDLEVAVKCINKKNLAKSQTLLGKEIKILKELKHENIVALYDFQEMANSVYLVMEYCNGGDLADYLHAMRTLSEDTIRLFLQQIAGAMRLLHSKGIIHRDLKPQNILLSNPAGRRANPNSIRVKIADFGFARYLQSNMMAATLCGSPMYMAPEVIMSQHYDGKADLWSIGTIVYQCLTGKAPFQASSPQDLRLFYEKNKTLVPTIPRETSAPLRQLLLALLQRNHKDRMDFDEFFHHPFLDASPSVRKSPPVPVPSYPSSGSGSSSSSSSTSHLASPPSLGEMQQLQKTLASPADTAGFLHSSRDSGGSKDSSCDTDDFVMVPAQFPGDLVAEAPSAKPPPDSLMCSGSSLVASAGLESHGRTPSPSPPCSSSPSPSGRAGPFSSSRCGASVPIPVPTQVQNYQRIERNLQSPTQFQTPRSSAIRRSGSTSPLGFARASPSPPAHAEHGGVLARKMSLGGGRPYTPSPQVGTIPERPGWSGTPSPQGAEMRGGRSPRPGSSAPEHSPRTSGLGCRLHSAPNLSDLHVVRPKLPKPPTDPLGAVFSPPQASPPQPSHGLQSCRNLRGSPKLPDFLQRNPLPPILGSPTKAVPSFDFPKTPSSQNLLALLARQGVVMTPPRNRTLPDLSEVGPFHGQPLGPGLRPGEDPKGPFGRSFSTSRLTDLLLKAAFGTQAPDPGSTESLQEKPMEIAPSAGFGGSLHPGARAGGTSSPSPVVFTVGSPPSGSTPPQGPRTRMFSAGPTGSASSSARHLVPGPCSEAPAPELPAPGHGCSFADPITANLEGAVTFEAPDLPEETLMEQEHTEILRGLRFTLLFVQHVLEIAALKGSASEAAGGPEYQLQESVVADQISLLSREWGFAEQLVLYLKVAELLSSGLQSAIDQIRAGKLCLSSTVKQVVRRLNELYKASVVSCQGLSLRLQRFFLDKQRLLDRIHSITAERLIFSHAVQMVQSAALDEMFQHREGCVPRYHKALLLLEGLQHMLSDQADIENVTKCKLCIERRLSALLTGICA
# Outline: as §1
# PLK3 = target: T5, PLK3 (Homo sapiens, UniProt Q9H4B4)
# T5 construct: purchased Reaction Biology Corporation (Kinase HotSpot)
# Outline: as §1
# STK39/STLK3 = target: T6, STK39/STLK3 (Homo sapiens, UniProt Q9UEW8)
# T6 construct: purchased Reaction Biology Corporation (Kinase HotSpot)
# Outline: as §1
# STK38/NDR1 = target: T7, STK38/NDR1 (Homo sapiens, UniProt Q15208)
# T7 construct: purchased Reaction Biology Corporation (Kinase HotSpot)
# Outline: as §1
# CK1g1 = target: T8, CK1g1 (Homo sapiens, UniProt Q9HCP0)
# T8 construct: purchased Reaction Biology Corporation (Kinase HotSpot)
# T8 sequence (Q9HCP0 whole entry): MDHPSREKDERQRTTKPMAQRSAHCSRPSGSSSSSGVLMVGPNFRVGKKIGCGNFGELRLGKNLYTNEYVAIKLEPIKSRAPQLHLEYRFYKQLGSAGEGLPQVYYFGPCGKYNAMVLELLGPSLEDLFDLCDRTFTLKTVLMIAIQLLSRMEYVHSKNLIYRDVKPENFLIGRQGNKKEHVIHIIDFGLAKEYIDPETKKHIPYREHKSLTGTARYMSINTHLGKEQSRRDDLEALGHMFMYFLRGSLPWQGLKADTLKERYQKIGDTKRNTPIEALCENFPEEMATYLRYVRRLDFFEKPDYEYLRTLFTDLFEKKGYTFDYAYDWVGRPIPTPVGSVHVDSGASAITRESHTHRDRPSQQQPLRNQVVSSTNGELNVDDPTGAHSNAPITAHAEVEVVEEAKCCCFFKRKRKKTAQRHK
# Outline: as §1
# JAK1 = target: T9, JAK1 (Homo sapiens, UniProt P23458)
# T9 construct: purchased Reaction Biology Corporation (Kinase HotSpot)
# Outline: as §1
# PHKg2 = target: T10, PHKg2 (Homo sapiens, UniProt P15735)
# T10 construct: purchased Reaction Biology Corporation (Kinase HotSpot)
# T10 sequence (P15735 whole entry): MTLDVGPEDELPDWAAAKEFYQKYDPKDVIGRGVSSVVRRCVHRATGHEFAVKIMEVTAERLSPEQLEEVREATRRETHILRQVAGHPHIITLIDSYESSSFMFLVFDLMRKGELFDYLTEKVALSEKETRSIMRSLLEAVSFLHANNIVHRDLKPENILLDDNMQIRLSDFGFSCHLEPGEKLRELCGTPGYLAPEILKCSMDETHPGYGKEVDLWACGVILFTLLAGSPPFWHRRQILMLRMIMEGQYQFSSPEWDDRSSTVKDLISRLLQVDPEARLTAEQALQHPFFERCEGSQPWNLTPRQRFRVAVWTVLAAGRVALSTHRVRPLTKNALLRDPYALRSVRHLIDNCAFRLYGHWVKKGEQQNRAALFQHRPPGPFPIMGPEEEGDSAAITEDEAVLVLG
# Outline: as §1
# CAMK1a = target: T11, CAMK1a (Homo sapiens, UniProt Q14012)
# T11 construct: purchased Reaction Biology Corporation (Kinase HotSpot)
# T11 sequence (Q14012 whole entry): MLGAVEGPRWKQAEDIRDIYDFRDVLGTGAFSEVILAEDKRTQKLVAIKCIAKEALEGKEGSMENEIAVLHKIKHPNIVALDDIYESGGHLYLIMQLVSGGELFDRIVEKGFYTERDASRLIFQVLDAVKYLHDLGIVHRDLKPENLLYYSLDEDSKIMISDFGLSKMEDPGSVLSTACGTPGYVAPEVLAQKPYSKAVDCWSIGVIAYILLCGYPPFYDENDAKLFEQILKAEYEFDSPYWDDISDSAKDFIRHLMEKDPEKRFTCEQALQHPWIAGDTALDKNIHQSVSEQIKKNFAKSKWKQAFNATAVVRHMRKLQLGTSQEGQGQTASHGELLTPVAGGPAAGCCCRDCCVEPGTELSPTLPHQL
# Outline: as §1
# CAMKK2 = target: T12, CAMKK2 (Homo sapiens, UniProt Q96RR4)
# T12 construct: purchased Reaction Biology Corporation (Kinase HotSpot)
# Outline: as §1
# LCK2/ICK = target: T13, LCK2/ICK (Homo sapiens, UniProt Q9UPZ9)
# T13 construct: purchased Reaction Biology Corporation (Kinase HotSpot)
# Outline: as §1
# PKN2/PRK2 = target: T14, PKN2/PRK2 (Homo sapiens, UniProt Q16513)
# T14 construct: purchased Reaction Biology Corporation (Kinase HotSpot)
# Outline: as §1
# ULK3 = target: T15, ULK3 (Homo sapiens, UniProt Q6PHR2)
# T15 construct: purchased Reaction Biology Corporation (Kinase HotSpot)
# T15 sequence (Q6PHR2 whole entry): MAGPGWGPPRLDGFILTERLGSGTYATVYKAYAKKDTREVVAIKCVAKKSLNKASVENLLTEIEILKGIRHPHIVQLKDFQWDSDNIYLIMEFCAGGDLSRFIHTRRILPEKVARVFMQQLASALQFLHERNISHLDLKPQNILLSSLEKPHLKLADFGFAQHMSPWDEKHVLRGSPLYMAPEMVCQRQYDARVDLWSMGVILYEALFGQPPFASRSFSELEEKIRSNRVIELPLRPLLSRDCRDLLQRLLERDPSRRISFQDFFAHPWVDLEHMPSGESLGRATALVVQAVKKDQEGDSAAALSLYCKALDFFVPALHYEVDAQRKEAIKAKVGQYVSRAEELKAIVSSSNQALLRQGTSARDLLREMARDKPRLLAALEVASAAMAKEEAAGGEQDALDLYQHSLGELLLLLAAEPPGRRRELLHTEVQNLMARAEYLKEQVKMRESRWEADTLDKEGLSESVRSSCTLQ
# Outline: as §1
# LRRK2 = target: T16, LRRK2 (Homo sapiens, UniProt Q5S007)
# T16 construct: purchased Reaction Biology Corporation (Kinase HotSpot)
# Outline: as §1
# GRK5 = target: T17, GRK5 (Homo sapiens, UniProt P34947)
# T17 construct: purchased Reaction Biology Corporation (Kinase HotSpot)
# Outline: as §1
# PKCb2 = target: T18, PKCb2 (Homo sapiens, UniProt P05771)
# T18 construct: purchased Reaction Biology Corporation (Kinase HotSpot)
# Outline: as §1
# NEK3 = target: T19, NEK3 (Homo sapiens, UniProt P51956)
# T19 construct: purchased Reaction Biology Corporation (Kinase HotSpot)
# Outline: as §1
# CAMKK1 = target: T20, CAMKK1 (Homo sapiens, UniProt Q8N5S9)
# T20 construct: purchased Reaction Biology Corporation (Kinase HotSpot)
# Outline: as §1
# FGR = target: T21, FGR (Homo sapiens, UniProt P09769)
# T21 construct: purchased Reaction Biology Corporation (Kinase HotSpot)
# Outline: as §1
# CK1a1 = target: T22, CK1a1 (Homo sapiens, UniProt P48729)
# T22 construct: purchased Reaction Biology Corporation (Kinase HotSpot)
# T22 sequence (P48729 whole entry): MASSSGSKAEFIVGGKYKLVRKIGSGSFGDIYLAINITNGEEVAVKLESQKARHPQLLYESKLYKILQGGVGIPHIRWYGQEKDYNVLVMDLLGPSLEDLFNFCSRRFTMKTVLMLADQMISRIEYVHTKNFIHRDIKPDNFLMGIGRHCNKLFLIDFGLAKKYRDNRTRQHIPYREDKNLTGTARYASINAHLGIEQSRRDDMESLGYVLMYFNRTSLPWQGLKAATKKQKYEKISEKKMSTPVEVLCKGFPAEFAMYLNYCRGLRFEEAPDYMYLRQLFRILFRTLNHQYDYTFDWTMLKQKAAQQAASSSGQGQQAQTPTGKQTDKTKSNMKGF
# Outline: as §1
# GRK7 = target: T23, GRK7 (Homo sapiens, UniProt Q8WTQ7)
# T23 construct: purchased Reaction Biology Corporation (Kinase HotSpot)
# T23 sequence (Q8WTQ7 whole entry): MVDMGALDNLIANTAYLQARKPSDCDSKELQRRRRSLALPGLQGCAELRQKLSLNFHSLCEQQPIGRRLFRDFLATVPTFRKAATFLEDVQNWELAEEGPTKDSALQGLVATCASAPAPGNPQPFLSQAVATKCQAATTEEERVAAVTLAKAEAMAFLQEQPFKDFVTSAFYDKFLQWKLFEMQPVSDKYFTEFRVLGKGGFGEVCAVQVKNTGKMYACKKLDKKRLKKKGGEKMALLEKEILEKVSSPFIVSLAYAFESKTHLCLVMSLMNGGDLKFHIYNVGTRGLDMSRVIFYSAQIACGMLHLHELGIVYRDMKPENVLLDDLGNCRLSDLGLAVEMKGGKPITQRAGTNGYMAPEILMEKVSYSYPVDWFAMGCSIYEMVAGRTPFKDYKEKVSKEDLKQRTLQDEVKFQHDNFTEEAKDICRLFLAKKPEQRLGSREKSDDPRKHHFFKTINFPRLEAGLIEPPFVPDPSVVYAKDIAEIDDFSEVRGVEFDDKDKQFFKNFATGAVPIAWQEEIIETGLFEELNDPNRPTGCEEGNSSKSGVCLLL
# Outline: as §1
# ALK = target: T24, ALK (Homo sapiens, UniProt Q9UM73)
# T24 construct: purchased Reaction Biology Corporation (Kinase HotSpot)
# Outline: as §1
# PKN1/PRK1 = target: T25, PKN1/PRK1 (Homo sapiens, UniProt Q16512)
# T25 construct: purchased Reaction Biology Corporation (Kinase HotSpot)
# T25 sequence (Q16512 whole entry): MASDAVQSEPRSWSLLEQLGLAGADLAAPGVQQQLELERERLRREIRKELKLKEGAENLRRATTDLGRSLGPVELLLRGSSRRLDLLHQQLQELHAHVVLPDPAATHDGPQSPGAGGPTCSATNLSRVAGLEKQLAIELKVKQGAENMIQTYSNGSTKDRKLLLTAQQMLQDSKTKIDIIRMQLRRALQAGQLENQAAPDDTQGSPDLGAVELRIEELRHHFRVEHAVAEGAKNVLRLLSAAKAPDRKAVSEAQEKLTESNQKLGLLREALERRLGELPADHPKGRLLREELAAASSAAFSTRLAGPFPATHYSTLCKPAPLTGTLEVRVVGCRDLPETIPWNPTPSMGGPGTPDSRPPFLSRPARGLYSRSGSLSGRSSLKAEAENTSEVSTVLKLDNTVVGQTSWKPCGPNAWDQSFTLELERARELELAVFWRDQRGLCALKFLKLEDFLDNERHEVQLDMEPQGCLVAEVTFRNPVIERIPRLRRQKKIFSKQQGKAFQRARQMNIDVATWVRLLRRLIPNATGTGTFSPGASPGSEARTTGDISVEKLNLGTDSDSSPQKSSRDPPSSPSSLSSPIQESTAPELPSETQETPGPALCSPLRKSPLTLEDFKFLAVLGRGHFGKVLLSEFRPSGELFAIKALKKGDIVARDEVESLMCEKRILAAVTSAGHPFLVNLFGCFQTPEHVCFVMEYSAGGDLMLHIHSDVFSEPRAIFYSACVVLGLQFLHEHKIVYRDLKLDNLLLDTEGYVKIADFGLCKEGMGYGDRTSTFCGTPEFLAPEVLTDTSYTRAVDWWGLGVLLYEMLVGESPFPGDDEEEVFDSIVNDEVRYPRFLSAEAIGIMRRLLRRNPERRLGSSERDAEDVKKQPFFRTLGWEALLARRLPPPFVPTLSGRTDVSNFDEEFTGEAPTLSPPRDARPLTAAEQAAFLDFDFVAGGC
# Outline: as §1
# P38g = target: T26, P38g (Homo sapiens, UniProt P53778)
# T26 construct: purchased Reaction Biology Corporation (Kinase HotSpot)
# T26 sequence (P53778 whole entry): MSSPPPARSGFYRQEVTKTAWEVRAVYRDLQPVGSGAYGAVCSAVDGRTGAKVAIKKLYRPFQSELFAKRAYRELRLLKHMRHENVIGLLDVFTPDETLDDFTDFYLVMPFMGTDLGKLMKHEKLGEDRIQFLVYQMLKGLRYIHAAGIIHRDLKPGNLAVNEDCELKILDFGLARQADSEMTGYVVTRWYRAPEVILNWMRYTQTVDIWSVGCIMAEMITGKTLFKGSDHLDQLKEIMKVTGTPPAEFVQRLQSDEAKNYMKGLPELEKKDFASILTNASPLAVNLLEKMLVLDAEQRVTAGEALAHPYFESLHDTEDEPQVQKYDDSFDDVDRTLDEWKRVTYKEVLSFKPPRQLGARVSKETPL
# Outline: as §1
# HIPK4 = target: T27, HIPK4 (Homo sapiens, UniProt Q8NE63)
# T27 construct: purchased Reaction Biology Corporation (Kinase HotSpot)
# Outline: as §1
# MEKK3 = target: T28, MEKK3 (Homo sapiens, UniProt Q99759)
# T28 construct: purchased Reaction Biology Corporation (Kinase HotSpot)
# Outline: as §1
# CAMK4 = target: T29, CAMK4 (Homo sapiens, UniProt Q16566)
# T29 construct: purchased Reaction Biology Corporation (Kinase HotSpot)
# Outline: as §1
# BRAF = target: T30, BRAF (Homo sapiens, UniProt P15056)
# T30 construct: purchased Reaction Biology Corporation (Kinase HotSpot)
# Outline: as §1
structure (smiles),measurement,setting,value
Cc1cnc(N[C@H]2CC[C@H](N)CC2)nc1-c1cnc2ccc(-c3ccccc3)cn12 [CDDD11-8],remaining activity at 1 µM,ROS/ROS1,41.5%
same,remaining activity at 1 µM,FAK/PTK2,63.3%
same,remaining activity at 1 µM,MUSK,72.7%
same,remaining activity at 1 µM,ULK1,108%
same,remaining activity at 1 µM,PLK3,109%
same,remaining activity at 1 µM,STK39/STLK3,45.7%
same,remaining activity at 1 µM,STK38/NDR1,93.3%
same,remaining activity at 1 µM,CK1g1,62.8%
same,remaining activity at 1 µM,JAK1,93.3%
same,remaining activity at 1 µM,PHKg2,93.9%
same,remaining activity at 1 µM,CAMK1a,80.7%
same,remaining activity at 1 µM,CAMKK2,47.7%
same,remaining activity at 1 µM,LCK2/ICK,62.4%
same,remaining activity at 1 µM,PKN2/PRK2,88.3%
same,remaining activity at 1 µM,ULK3,82.8%
same,remaining activity at 1 µM,LRRK2,70.6%
same,remaining activity at 1 µM,GRK5,88.9%
same,remaining activity at 1 µM,PKCb2,121%
same,remaining activity at 1 µM,NEK3,92.8%
same,remaining activity at 1 µM,CAMKK1,76.5%
same,remaining activity at 1 µM,FGR,73.4%
same,remaining activity at 1 µM,CK1a1,102%
same,remaining activity at 1 µM,GRK7,70.7%
same,remaining activity at 1 µM,ALK,68.9%
same,remaining activity at 1 µM,PKN1/PRK1,63.8%
same,remaining activity at 1 µM,P38g,100%
same,remaining activity at 1 µM,HIPK4,52.4%
same,remaining activity at 1 µM,MEKK3,109%
same,remaining activity at 1 µM,CAMK4,97.3%
same,remaining activity at 1 µM,BRAF,99.7%
